The values below are quoted from earlier work in patent US11195597B2, “Method and device for calculating acid dissociation constant, and program” (FUJITSU LIMITED, priority 2015, dated 2021).

For the data set the following is noted: known measured value; dissociation point circled in the structure.
What is called pKa is the pH at which an ionisable group is half protonated. Turning to `CCC(C)C(C)C(=O)O.N` (stereo not drawn) [Number 44], the pKa was 9.68.
With `C[C@@H](O)[C@H](N)C(=O)O` [Number 75, threonine], the pKa was 9.1.
As for `O=[N+]([O-])c1ccccn1` [Number 94, 2-nitropyridine], the pKa is given as −2.6.
For the compound `CCCCN(CCCC)CCCC` [Number 76, tri-n-butylamine], the pKa is on record as 10.89.
Turning to `O=[N+]([O-])c1ccncc1` [Number 104, 4-nitropyridine], the pKa was 1.6.
As for `COc1ccccn1` [Number 90, 2-methoxypyridine], the pKa is reported as 3.3.
On to `c1ccc(-c2ccncc2)cc1` [Number 105, 4-phenylpyridine], for which the pKa is 5.5.
Consider `COc1cccnc1` [Number 96, 3-methoxypyridine], for which the pKa was 4.9.
Take `O=C(c1ccccc1)N1CCNCC1` [Number 52]: the pKa was 7.78.
`NCCCc1ccccc1` [Number 63]: the pKa is 10.2.
As for `C=CCN(C)CC=C` [Number 25], the pKa is 8.79.
For the compound `CCNCc1ccccc1` [Number 15], the pKa is listed as 9.68.
Take `CC(CCC(=O)O)C(=O)O.N` (stereo not drawn) [Number 41]: the pKa is on record as 9.67.
Take `CC(CC(N)=O)C(=O)O.N` (stereo not drawn) [Number 12]: the pKa was 8.8.
For `c1ncc2[nH]cnc2n1` [Number 124], the pKa was 8.9.
In the case of `CCCCN(C)C` [Number 32], the pKa is reported as 10.02.
In the case of `CC(Cc1cnc[nH]1)C(=O)O.N` (stereo not drawn) [Number 43], the pKa is on record as 9.17.
`CCC(C)NC(C)CC` (stereo not drawn) [Number 23, di-sec-butylamine]: the pKa is listed as 11.01.
Turning to `N[C@@H](Cc1ccccc1)C(=O)O` [Number 59, phenylalanine], the pKa is 9.13.
As for `NCCCCC(N)C(=O)O` (stereo not drawn) [Number 48], the pKa is listed as 10.53.
As to `O=C(O)C1CCCN1` (stereo not drawn) [Number 67], the pKa was 10.6.
For the compound `CNCc1ccccc1` [Number 16], the pKa is 9.58.
Take `c1ccc2cc3ncccc3cc2c1` [Number 113]: the pKa is 5.05.
`CNC1CCCCC1` [Number 18]: the pKa is 10.49.
As to `CC(C)(C)CN` [Number 58], the pKa is on record as 10.21.
On to `CC(CCCCN)C(=O)O.N` (stereo not drawn) [Number 47], for which the pKa was 8.95.
For `c1ccc2[nH]cnc2c1` [Number 112], the pKa is recorded as 16.4.
For `c1ccc(-c2cccnc2)cc1` [Number 100, 3-phenylpyridine], the pKa was 4.8.
For `CCCN(C)C` [Number 33], the pKa is listed as 9.99.
`O=[N+]([O-])c1cccnc1` [Number 99, 3-nitropyridine]: the pKa was 0.6.
For the compound `CC(CCCNC(N)N)C(=O)O` (stereo not drawn) [Number 11], the pKa is on record as 12.48.
As for `CC(C)C(N)C(=O)O` (stereo not drawn) [Number 84], the pKa is 9.62.
As to `Cc1cccnc1` [Number 97], the pKa was 5.7.
Turning to `N#Cc1ccccn1` [Number 93, 2-cyanopyridine], the pKa is −0.3.
On to `CC(C)CNCC(C)C` [Number 28, di-isobutylamine], for which the pKa is reported as 10.5.
Turning to `N#Cc1ccncc1` [Number 103, 4-cyanopyridine], the pKa was 1.9.
In the case of `NC(Cc1c[nH]c2ccccc12)C(=O)O` (stereo not drawn) [Number 82], the pKa is on record as 9.39.
Consider `c1ccc2c(c1)[nH]c1ccccc12` [Number 114], for which the pKa is 19.9.
For `c1ccc2c(c1)CCCN2` [Number 132, tetrahydroquinoline], the pKa is on record as 5.
For the compound `Nc1ccc2ccccc2c1` [Number 92, 2-naphthalamine], the pKa was 4.16.
For `NCCCCCc1ccccc1` [Number 60, phenylamylamine], the pKa is given as 10.49.
For the compound `CCc1ccccc1.N` [Number 14], the pKa is 9.34.
Take `CC(C)CN(C)C` [Number 35]: the pKa was 10.52.
For the compound `NCCCCc1ccccc1` [Number 61], the pKa is on record as 10.4.
Take `COc1ccncc1` [Number 101, 4-methoxypyridine]: the pKa is listed as 6.6.
For `c1ncc2[nH]cnc2n1` [Number 123], the pKa is 2.5.
`c1ccc2cnccc2c1` [Number 120, isoquinoline]: the pKa was 5.14.
On to `CCCNCCC` [Number 22], for which the pKa was 11.
As to `c1ccc(Nc2ccccc2)cc1` [Number 108], the pKa was 0.78.
On to `CC(CCCNC(N)N)C(=O)O.N` (stereo not drawn) [Number 10], for which the pKa is given as 9.04.
In the case of `CC(C)C(=O)O.N` [Number 5], the pKa is on record as 9.69.
With `NC(CO)C(=O)O` (stereo not drawn) [Number 72], the pKa is reported as 9.15.
In the case of `CC(CC(=O)O)C(=O)O.N` (stereo not drawn) [Number 13], the pKa is 9.82.
As to `CC1CCCCC1.N` [Number 17], the pKa was 10.64.
With `CN(C)c1ccccc1` [Number 109], the pKa is given as 5.2.
Regarding `N#Cc1cccnc1` [Number 98, 3-cyanopyridine], the pKa was 1.4.
Regarding `C=CCNCC=C` [Number 24], the pKa is on record as 9.29.
